# From US12496346B2, “Phospholipid-flavagline conjugates and methods of using the same for targeted cancer therapy” (Cellectar Biosciences, Inc., priority 2019, dated 2025)
# Tests used:
# [1] = test system: PC3 (grade IV, human prostate adenocarcinoma) cell lines; experiment: Co-localization with mitochondria; type: cell-based; details: 5 μM, 24 hours, Mitotracker
# From the text: The cells were observed using Nikon A1R confocal microscope.
# Pancreatic Kras = experiment: Tumor uptake of PLE; type: in vivo; details: Endogenous Mouse, Adenocarcinoma
# Protocol: (§1) Tumor cell uptake was measured continuously for 24 hours.
# Prostate LnCap = experiment: Tumor uptake of PLE; type: in vivo; details: Mouse, Adenocarcinoma
# Protocol: as §1
# Colon-51 = experiment: Tumor uptake of PLE; type: in vivo; details: SCID Mouse, Colorectal adenocarcinoma
# Protocol: as §1
# Adrenal RL-251 = experiment: Tumor uptake of PLE; type: in vivo; details: SCID Mouse, Adenocarcinoma
# Protocol: as §1
# Retinoblastoma = experiment: Tumor uptake of PLE; type: in vivo; details: Endogenous Mouse, Blastoma
# Protocol: as §1
# Walker-256 = experiment: Tumor uptake of PLE; type: in vivo; details: Rat, Carcinosarcoma
# Protocol: as §1
# ColonLS180 = experiment: Tumor uptake of PLE; type: in vivo; details: SCID Mouse, Colorectal adenocarcinoma
# Protocol: as §1
# Colon DLDI = experiment: Tumor uptake of PLE; type: in vivo; details: SCID Mouse, Colorectal adenocarcinoma
# Protocol: as §1
# Lung NCI H-69 (Oat Cell) = experiment: Tumor uptake of PLE; type: in vivo; details: SCID Mouse, Adenocarcinoma
# Protocol: as §1
# Colon CT-26 = experiment: Tumor uptake of PLE; type: in vivo; details: SCID Mouse, Adenocarcinoma
# Protocol: as §1
# Pancreatic c-myc = experiment: Tumor uptake of PLE; type: in vivo; details: Endogenous Mouse, Adenocarcinoma
# Protocol: as §1
# Sarcoma (Meth-A) = experiment: Tumor uptake of PLE; type: in vivo; details: Nude Mouse, Fibrosarcoma
# Protocol: as §1
# Pancreatic Capan-1 = experiment: Tumor uptake of PLE; type: in vivo; details: Nude Mouse, Adenocarcinoma
# Protocol: as §1
# Breast 4T1 = experiment: Tumor uptake of PLE; type: in vivo; details: Endogenous Mouse (orthotopic), Adenocarcinoma
# Protocol: as §1
# Renal Cell Caki-2 = experiment: Tumor uptake of PLE; type: in vivo; details: Nude Mouse (orthotopic), Adenocarcinoma
# Protocol: as §1
# Glioma RG2 = experiment: Tumor uptake of PLE; type: in vivo; details: Rat xenograft
# Protocol: as §1
# Mammary AC = experiment: Tumor uptake of PLE; type: in vivo; details: Apc^Min/+ mouse, Adenocarcinoma
# Protocol: as §1
# Cervical = experiment: Tumor uptake of PLE; type: in vivo; details: Endogenous Mouse, Adenocarcinoma
# Protocol: as §1
# SCC1 = experiment: Tumor uptake of PLE; type: in vivo; details: Nude Mouse, Squamous cell carcinoma
# Protocol: as §1
# Melanoma A-375 = experiment: Tumor uptake of PLE; type: in vivo; details: Nude Mouse, Adenocarcinoma
# Protocol: as §1
# Breast MCF-7 = experiment: Tumor uptake of PLE; type: in vivo; details: Rat, Adenocarcinoma
# Protocol: as §1
# Prostate LuCap = experiment: Tumor uptake of PLE; type: in vivo; details: Mouse, Adenocarcinoma
# Protocol: as §1
# Glioma C6 = experiment: Tumor uptake of PLE; type: in vivo; details: Rat xenograft
# Protocol: as §1
# Melanoma = experiment: Tumor uptake of PLE; type: in vivo; details: Mouse, Adenocarcinoma
# Protocol: as §1
# Ovarian HTB-77 = experiment: Tumor uptake of PLE; type: in vivo; details: Nude Mouse, Adenocarcinoma
# Protocol: as §1
# Pancreatic BXPC3 = experiment: Tumor uptake of PLE; type: in vivo; details: Nude Mouse, Adenocarcinoma
# Protocol: as §1
# SCC6 = experiment: Tumor uptake of PLE; type: in vivo; details: Nude Mouse, Adenocarcinoma
# Protocol: as §1
# Renal Cell ACHN = experiment: Tumor uptake of PLE; type: in vivo; details: Nude Mouse (orthotopic), Adenocarcinoma
# Protocol: as §1
# Min Mouse Intestinal = experiment: Tumor uptake of PLE; type: in vivo; details: Endogenous Mouse, Adenocarcinoma
# Protocol: as §1
# Adrenal H-295 = experiment: Tumor uptake of PLE; type: in vivo; details: SCID Mouse, Adenocarcinoma
# Protocol: as §1
# Glioma L9 = experiment: Tumor uptake of PLE; type: in vivo; details: Rat xenograft
# Protocol: as §1
# Lung A-549 (NSCLC) = experiment: Tumor uptake of PLE; type: in vivo; details: SCID Mouse, Adenocarcinoma
# Protocol: as §1
# Prostate MatLyLu = experiment: Tumor uptake of PLE; type: in vivo; details: Rat, Adenocarcinoma
# Protocol: as §1
# Esophageal = experiment: Tumor uptake of PLE; type: in vivo; details: Endogenous Mouse, Adenocarcinoma
# Protocol: as §1
# TRAMP prostate = experiment: Tumor uptake of PLE; type: in vivo; details: Endogenous Mouse, Adenocarcinoma
# Protocol: as §1
# Mammary SCC = experiment: Tumor uptake of PLE; type: in vivo; details: Apc^Min/+ mouse, Squamous cell carcinoma
# Protocol: as §1
# Glioma CNS1 = experiment: Tumor uptake of PLE; type: in vivo; details: Rat xenograft
# Protocol: as §1
# Prostate PC-3 = experiment: Tumor uptake of PLE; type: in vivo; details: SCID Mouse, Adenocarcinoma
# Protocol: as §1
# Colon LS-180 = experiment: Tumor uptake of PLE; type: in vivo; details: Nude Mouse, Adenocarcinoma
# Protocol: as §1
# Hepatocellular Carcinoma = experiment: Tumor uptake of PLE; type: in vivo; details: Endogenous Mouse, Adenocarcinoma
# Protocol: as §1
# Colon HT-29 = experiment: Tumor uptake of PLE; type: in vivo; details: SCID Mouse, Colorectal adenocarcinoma
# Protocol: as §1
# [2] = test system: Human prostate adenocarcinoma cells (PC3); experiment: Co-localization with endoplasmic reticulum; type: cell-based; details: 5 μM, 24 hours, ER-tracker
# From the text: After washing, the cells were co-stained with ER-tracker® per protocol and imaged using Nikon A1R confocal light microscope. CLR 1501 and ER were excited and detected using Alexa-Fluor 488 using standard fluorescein filters.
# A549 cells = experiment: Uptake of PDC after disruption of lipid rafts; type: cell-based, human; details: lipid rafts disrupted with methyl b-cyclodextrin vs untreated cells; 5 μM, 24 hours
# Protocol: A549 cells were plated overnight into separate wells.
# Normal fibroblast = experiment: Selective uptake of PDC in co-culture; type: cell-based; details: 5 μM, 24 hours, co-culture with Caki-2
# Protocol: (§2) Normal fibroblast and Caki-2 tumor cells (human clear cell renal cell carcinoma) were plated and co-cultured overnight (FIG. 1F). […] The next day cells were washed and co-stained with nucleus stain (Hoescht 33342). CLR 1501 was excited and then detected with an Alexa-Fluor 488 filter.
# [3] = test system: Caki-2 tumor cells (human clear cell renal cell carcinoma); experiment: Selective uptake of PDC in co-culture; type: cell-based; details: 5 μM, 24 hours, co-culture with normal fibroblast
# Protocol: as §2
# Intestinal Polyp = experiment: Uptake in benign tissues; type: in vivo; details: Endogenous Mouse, Adenoma (benign)
# [4] = test system: Mammary alveolar hyperplasia; experiment: Uptake in benign tissues; type: in vivo; details: Endogenous Mouse
# [5] = test system: Colorectal (HCT-116) tumor; experiment: In vivo imaging of targeted delivery; parameters: species or system nude mouse
# Protocol: Initial targeting noted within 30 minutes (not shown).
smiles,measurement,setting,value
C[N+](C)(C)CCOP(=O)([O-])OCCCCCCCCCCCCCCCCCCc1ccc(C2=C3C=CC=[N+]3[B-](F)(F)n3cccc32)cc1 [CLR 1501],co-localization with mitochondria,[1],co-localized with mitochondria
same,Tumor Uptake,Pancreatic Kras,Yes
same,Tumor Uptake,Prostate LnCap,Yes
same,Tumor Uptake,Colon-51,Yes
same,Tumor Uptake,Adrenal RL-251,Yes
same,Tumor Uptake,Retinoblastoma,Yes
same,Tumor Uptake,Walker-256,Yes
same,Tumor Uptake,ColonLS180,Yes
same,Tumor Uptake,Colon DLDI,Yes
same,Tumor Uptake,Lung NCI H-69 (Oat Cell),Yes
same,Tumor Uptake,Colon CT-26,Yes
same,Tumor Uptake,Pancreatic c-myc,Yes
same,Tumor Uptake,Sarcoma (Meth-A),Yes
same,Tumor Uptake,Pancreatic Capan-1,Yes
same,Tumor Uptake,Breast 4T1,Yes
same,Tumor Uptake,Renal Cell Caki-2,Yes
same,Tumor Uptake,Glioma RG2,Yes
same,Tumor Uptake,Mammary AC,Yes
same,Tumor Uptake,Cervical,Yes
same,Tumor Uptake,SCC1,Yes
same,Tumor Uptake,Melanoma A-375,Yes
same,Tumor Uptake,Breast MCF-7,Yes
same,Tumor Uptake,Prostate LuCap,Yes
same,Tumor Uptake,Glioma C6,Yes
same,Tumor Uptake,Melanoma,Yes
same,Tumor Uptake,Ovarian HTB-77,Yes
same,Tumor Uptake,Pancreatic BXPC3,Yes
same,Tumor Uptake,SCC6,Yes
same,Tumor Uptake,Renal Cell ACHN,Yes
same,Tumor Uptake,Min Mouse Intestinal,Yes
same,Tumor Uptake,Adrenal H-295,Yes
same,Tumor Uptake,Glioma L9,Yes
same,Tumor Uptake,Lung A-549 (NSCLC),Yes
same,Tumor Uptake,Prostate MatLyLu,Yes
same,Tumor Uptake,Esophageal,Yes
same,Tumor Uptake,TRAMP prostate,Yes
same,Tumor Uptake,Mammary SCC,Yes
same,Tumor Uptake,Glioma CNS1,Yes
same,Tumor Uptake,Prostate PC-3,Yes
same,Tumor Uptake,Colon LS-180,Yes
same,Tumor Uptake,Hepatocellular Carcinoma,Yes
same,Tumor Uptake,Colon HT-29,Yes
same,co-localization with ER,[2],co-localized with ER in malignant
same,reduction in uptake,A549 cells,60%
same,localization in normal fibroblast cells,Normal fibroblast,minimally
same,localization in Caki-2 cells,[3],highly localized
C[N+](C)(C)CCOP(=O)([O-])OCCCCCCCCCCCCCCCCCCc1ccc(I)cc1 [CLR1404],Tumor Uptake,Intestinal Polyp,No
same,Tumor Uptake,[4],No
CN1/C(=C/C=C2\CCCC(/C=C/C3=[N+](C)c4ccccc4C3(C)C)=C2c2ccc(CCCCCCCCCCCCCCCCCCOP(=O)(O)OCC[N+](C)(C)C)cc2)C(C)(C)c2ccccc21 [CLR 1502],time to initial targeting,[5]; 1 mg injected,≤ 30 min
same,time to maximum distribution,"[5]; 1 mg injected, Pearl Infrared Imaging System",≤ 24 h
same,distribution in tumor,"[5]; approximately 5.5 hours post injection, 1 mg",the tumor still showed red color
